The values below come from paper PMC7126465 (Bioorganic & Medicinal Chemistry, 2017).

The subject of data set [1] is human embryonic lung (HEL) cells. The conditions noted are these: read-out: Cytotoxicity CC50, ref Krecmerova et al. (Ref. [7]); cited from earlier work.
Another data set deals with HCMV (Davis). The conditions noted are these: read-out: EC50 (HEL) HCMV (Davis); HEL cells; ref Krecmerova et al. (Ref. [7]); cited from earlier work.
The test system of the next data set is HCMV (AD-169). Conditions: read-out: EC50 (HEL) HCMV (AD-169); HEL cells; ref Krecmerova et al. (Ref. [7]); cited from earlier work.
The next data set has as its system HSV-2 (G). Conditions: read-out: EC50 (HEL) HSV-2 (G); HEL cells; ref Krecmerova et al. (Ref. [7]); cited from earlier work.
A further data set deals with VZV TK+ (Oka). The conditions noted are these: read-out: EC50 (HEL) VZV TK+ (Oka); HEL cells; ref Krecmerova et al. (Ref. [7]); cited from earlier work.
A further data set has as its system HSV-1 (Kos). The conditions noted are these: read-out: EC50 (HEL) HSV-1 (Kos); HEL cells; ref Krecmerova et al. (Ref. [7]); cited from earlier work.
For the next data set, the system named is Vaccinia virus. The conditions noted are these: read-out: EC50 (HEL) Vaccinia virus; HEL cells; ref Krecmerova et al. (Ref. [7]); cited from earlier work.
Data set [2] has as its system human embryonic lung (HEL) cells. The conditions noted are these: ref Krecmerova et al. (Ref. [7]); cited from earlier work.
For another data set, the system named is VZV TK− (07-1). The conditions noted are these: read-out: EC50 (HEL) VZV TK− (07-1); HEL cells; ref Krecmerova et al. (Ref. [7]); cited from earlier work.
Data set [3] relates to herpesviruses (HSV, VZV, HCMV). As to the kind of experiment: Anti-herpesvirus activity overall. In kind it is cell-based. The conditions noted are these: HEL cells.

As for `Nc1ncn(CCOCP(=O)(O)O)c(=O)n1` [Compound 6, 1-[2-(phosphonomethoxy)ethyl]-5-azacytosine], the cytotoxic concentration (CC50) in data set [1] was more than 200 µM. In addition, the EC50 with HCMV (Davis) was 147 µM; with HCMV (AD-169), 195 µM; in the data set with HSV-2 (G), 103 µM; with VZV TK+ (Oka), 100 µM; in the data set on HSV-1 (Kos), 39 µM; in the data set with Vaccinia virus it was more than 398 µM. Further, in the data set with VZV TK− (07-1), the EC50 was 40 µM. Also, the “Cytotoxicity MCC” value in data set [2] was more than 398 µM. In data set [3], the “Anti-herpesvirus activity (in words)” value is listed as “marginal anti-herpesvirus activity”.

Broadly, the CC50 is the concentration at which the toxic effect on the cells reaches its halfway point. What is called EC50 is the concentration needed to bring the measured effect to its halfway point.
